Experimental data from patent publication EP0973746B1, “SUBSTITUTED 3-CYANO QUINOLINES” (Wyeth Holdings Corporation, priority 1997, dated 1998).
In brackets after ≈: the same amount, converted by molar mass. Structures can show the parent of a compound that is named as a salt. Where two headings read alike, the source gives them in different places.

Experiments:
[1] = system: A431; assay: Inhibition of cancer cell growth as measured by cell number, A431; type: cell-based, human; details: Table 8; for IC50: Homo sapiens, A-431, 48 h;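 for all read-outs here: human A431 line, picked because it overexpresses epidermal growth factor receptor (EGFR)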
Source text: (§1) The cell lines were chosen since they overexpressed epidermal growth factor receptor (EGFR) (i.e. A431) or HER2/neu (SKBR3), or had little to no expression of the these receptors (SW620, LOX, MCF7).

[2] = system: SKBR3; assay: Inhibition of cancer cell growth as measured by cell number, SKBR3; type: cell-based, human; details: Table 8; for IC50: Homo sapiens;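 for all read-outs here: SK-BR-3 cells were selected as a line overexpressing HER2/neu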
Source text: as §1

[3] = system: SW620; assay: Inhibition of cancer cell growth as measured by cell number, SW620; type: cell-based, human; details: Table 8; for IC50: Homo sapiens, SW-620, 48 h;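 for all read-outs here: SW620 was included as a cell line with little or no EGFR or HER2/neu expression, in contrast to receptor-overexpressing lines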
Source text: as §1

[4] = molecular target: T1, His-tagged cytoplasmic domain of EGFR (Homo sapiens, UniProt P00533); assay: Inhibition of Epidermal Growth Factor Receptor Kinase (EGF-R) using recombinant enzyme; type: biochemical;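 note: radiometric kinase assay measuring radiolabeled phosphate transfer from ATP onto the peptide tyrosine by scintillation counting, control is reaction without compound, background subtracted, IC50 from dose-response curve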
T1 construct: containing the EGFR cDNA encoding amino acids 645 - 1186 preceded by Met-Ala-(His)6; made in house; host or cells: Sf9 cells, recombinant baculovirus vHcEGFR52

[5] = molecular target: recombinant human MEK 1 (MAPKK) and recombinant human ERK2 (MAPK); assay: Mitogen Activated Protein Kinase (MAPK) assay, two component coupled MEK 1 / ERK2; type: biochemical; details: separate entries for the same compound = evaluated more than one time;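 note: MEK 1-activated ERK2 phosphorylates MBP or Myc peptide with 33P-ATP, filter capture and scintillation counting, inhibitor preincubated with ERK2 30 min at 0 °C, inhibition relative to uninhibited control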
Procedure: To evaluate inhibitors of the MAP (mitogen activated protein) kinase a two component coupled standard pharmacological test procedure, which measures phosphorylation of a serine/threonine residue in an appropriate sequence in the substrate in the presence and absence of a putative inhibitor, was used. Recombinant human MEK 1 (MAPKK) was first used to activate recombinant human ERK2 (MAPK) and the activated MAPK (ERK) was incubated with substrate (MBP peptide or MYC peptide) in the presence of ATP, Mg^+2 and radiolabeled ^33P ATP. The phosphorylated peptide was captured on a P 81 phosphocellulose filter (paper filter or embedded in microtiter plate) washed and counted by scintillation methods.
The peptide substrates used in the assay are MBP, peptide substrate ([sequence]), or synthetic Myc substrate, ([sequence]•5 TFA. The recombinant enzymes used were prepared as GST fusion proteins of human ERK 2 and human MEK 1. Inhibitor samples were prepared as 10X stocks in 10% DMSO and an appropriate aliquot was used to deliver either 10 ug/ml for a single point screening dose or 100, 10, 1, and 0.1 uM final concentration for a dose response curve. Final DMSO concentrations were less than or equal to 1%.
The reaction was run as follows in 50 mM Tris kinase buffer, pH 7.4 in a reaction volume of 50 ul. The appropriate volume of kinase buffer and inhibitor sample was added to the tube. Appropriate dilution of enzyme was delivered to give 2-5 ug recombinant MAPK (Erk ) per tube. The inhibitor was incubated with MAPK (Erk) for 30 min at 0 deg. […] Recombinant Mek (MAPKK) ( 0.5-2.5 ug) or fully activated Mek (0.05-0.1 units) was added to activate the Erk and incubated for 30 min at 30° C. […] Samples were incubated at 30°C for 30 minutes and the reaction was stopped by adding 25 µl of ice cold 10 %TCA .After samples were chilled on ice for 30 min, 20 µl of sample was transferred onto P 81 phosphocellulose filter paper or appropriate MTP with embedded P 81 filter. Filter papers or MTP were washed 2 times with a large volume of 1% acetic acid, then 2 times with water. The filters or MTP were briefly air dried before addition of scintillant and samples were counted in the appropriate scintillation counter set up for reading ^33P isotope.
The raw data was captured as cpm. Sample replicates were averaged and corrected for background count. Mean cpm data was tabulated by group and % inhibition by a test compound was calculated as (corrected cpm control- corrected. cpm sample/control) X 100 = % inhibition.

[6] = cell number, Sulforhodamine B, 48 hours exposure, read-out: IC50 A431
[7] = SK-BR-3, cell number, Sulforhodamine B, 48 hours exposure, read-out: IC50 SKBR3
[8] = cell number, Sulforhodamine B, 48 hours exposure, read-out: IC50 SW620
[9] = recombinant enzyme, RR-SRC peptide, average of the number of tests, read-out: IC50
[10] = read-out: IC50 A431, cell number, Sulforhodamine B, 48 hours exposure
[11] = SK-BR-3, 48 h, read-out: IC50 SKBR3, cell number, Sulforhodamine B, 48 hours exposure
[12] = read-out: IC50 SW620, cell number, Sulforhodamine B, 48 hours exposure
[13] = cell number, Sulforhodamine B, 48 hours exposure

T1 sequence (P00533 669-1210): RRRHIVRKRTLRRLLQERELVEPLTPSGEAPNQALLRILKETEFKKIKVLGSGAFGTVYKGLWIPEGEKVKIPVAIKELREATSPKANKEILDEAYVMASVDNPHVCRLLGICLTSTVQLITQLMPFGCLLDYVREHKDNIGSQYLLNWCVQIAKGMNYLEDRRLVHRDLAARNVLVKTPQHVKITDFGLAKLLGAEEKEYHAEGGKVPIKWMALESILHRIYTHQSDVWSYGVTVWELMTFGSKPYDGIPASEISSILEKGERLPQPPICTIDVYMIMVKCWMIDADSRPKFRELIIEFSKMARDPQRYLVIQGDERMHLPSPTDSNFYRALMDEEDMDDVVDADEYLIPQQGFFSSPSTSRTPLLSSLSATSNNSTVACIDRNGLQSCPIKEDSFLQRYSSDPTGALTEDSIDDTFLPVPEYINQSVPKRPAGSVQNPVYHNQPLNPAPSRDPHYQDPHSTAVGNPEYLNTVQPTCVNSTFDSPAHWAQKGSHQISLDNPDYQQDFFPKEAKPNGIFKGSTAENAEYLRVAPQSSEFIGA

COC/C=C\C(=O)Nc1ccc2ncc(C#N)c(Nc3ccc(F)c(Cl)c3)c2c1 [Example 185, N-[4-[(3-Chloro-4-fluorophenyl)amino]-3-cyano-6-quinolinyl]-4-methoxy-(Z)-2-butenamide]
IC50 [1, 6]: 0.34 µg/mL (≈ 0.828 µM)
IC50 [2, 7]: 1.11 µg/mL (≈ 2.7 µM)
IC50 [3, 8]: 2.18 µg/mL (≈ 5.31 µM)
IC50 [4, 9]: ≥ 10000 nM

CCN(CC)CC#CC(=O)Nc1ccc2ncc(C#N)c(Nc3ccc(F)c(Cl)c3)c2c1 [Example 189, N-[4-[(3-Chloro-4-fluorophenyl)amino]-3-cyano-6-quinolinyl]-4-diethylamino-2-butynamide]
IC50 [1, 10]: 0.04 µg/mL (≈ 0.0889 µM)
IC50 [2, 11]: 0.03 µg/mL (≈ 0.0667 µM)
IC50 [3, 12]: 0.1 µg/mL (≈ 0.222 µM)
IC50 [4, 9]: 2 nM
IC50 [5]: 50000 nM

COCC#CC(=O)Nc1ccc2ncc(C#N)c(Nc3ccc(F)c(Cl)c3)c2c1 [Example 194, N-[4-[-(3-Chloro-4-fluorophenyl)amino]-3-cyano-6-quinolinyl]-4-methoxy-2-butynamide]
IC50 [1, 10]: 0.1 µg/mL (≈ 0.245 µM)
IC50 [2, 11]: 0.2 µg/mL (≈ 0.489 µM)
IC50 [3, 12]: 0.2 µg/mL (≈ 0.489 µM)
IC50 [4, 9]: 1.7 nM
IC50 [5]: > 100000 nM

COc1cc2ncc(C#N)c(Nc3cccc(Br)c3)c2cc1NC(=O)C=CCN(C)C [Example 198, 4-Dimethylamino-but-2-enoic acid [4-(3-brom-phenylamino)-3-cyano-7-methoxy-quinolin-6yl]-amide]
IC50 A431 [1, 13]: 0.002 µg/mL (≈ 0.00416 µM)
IC50 SKBR3 [2, 13]: 0.03 µg/mL (≈ 0.0625 µM)
IC50 SW620 [3, 13]: 0.4 µg/mL (≈ 0.833 µM)
IC50 [4]: 0.008 nM

CCN(CC)CC=CC(=O)Nc1cc2c(Nc3cccc(Br)c3)c(C#N)cnc2cc1OC [Example 199, 4-Diethylamino-but-2-enoic acid [4-(3-bromo-phenylamino)-3-cyano-7-methoxy-quinolin-6-yl]-amide]
IC50 [1, 6]: 0.048 µg/mL (≈ 0.0944 µM)
IC50 [2, 7]: 0.076 µg/mL (≈ 0.149 µM)
IC50 [3, 8]: 0.433 µg/mL (≈ 0.852 µM)
IC50 [4, 9]: 0.5 nM

CCN(CC)CC=CC(=O)Nc1cc2c(Nc3ccc(F)c(Br)c3)c(C#N)cnc2cc1OC [Example 209, 4-Diethylamino-but-2-enoic acid [4-(3-bromo-4-fluorophenylamino)-3-cyano-7-methoxy-quinolin-6-yl]-amide]
IC50 [1, 10]: 0.113 µg/mL (≈ 0.215 µM)
IC50 [2, 11]: 0.048 µg/mL (≈ 0.0912 µM)
IC50 [3, 12]: 0.38 µg/mL (≈ 0.722 µM)
IC50 [4, 9]: 5 nM
IC50 [5]: 9000 nM

COc1cc2ncc(C#N)c(Nc3cccc(Br)c3)c2cc1NC(=O)C#CCN(C)C [Example 227, 4-Dimethylamino-but-2-ynoic acid [4-(3-bromo-phenylamino)-3-cyano-7-methoxy-quinol-6-yl]-amide]
IC50 [1, 10]: 0.02 µg/mL (≈ 0.0418 µM)
IC50 [2, 11]: 0.2 µg/mL (≈ 0.418 µM)
IC50 [3, 12]: 0.1 µg/mL (≈ 0.209 µM)
IC50 [4, 9]: 10 nM

COc1cc2ncc(C#N)c(Nc3cccc(N)c3)c2cc1OC [Example 264, 4-(3-Aminophenylamino)-6,7-dimethoxy-3-quinolinecarbonitrile]
IC50 [4, 9]: 500 nM
IC50 [5]: 3000 nM

COc1cc2ncc(C#N)c(Nc3cccc(CS)c3)c2cc1OC [Example 270]
IC50 [4, 9]: 10 nM
IC50 [5]: > 100000 nM

COc1cc2c(Nc3cccc(Br)c3)c(C#N)cnc2cc1OCCCN1CCOCC1 [Example 313, 4-(3-Bromo-phenylamino)-6-methoxy-7-(3-morpholin-4-yl-propoxy)-quinoline-3-carbonitrile]
IC50 [4, 9]: 400 nM
IC50 [5]: > 100000 nM

N#Cc1cnc2ccc(NC(=O)/C=C/Cl)cc2c1Nc1cccc(Br)c1 [Example 326, N-[4-(3-Bromo-phenylamino)-3-cyano-quinolin-6-yl]-3-chloro-(E) acrylamide]
IC50 [4, 9]: 0.05 nM
IC50 [5]: 35000 nM

COc1cc2ncc(C#N)c(Nc3cccc(Br)c3)c2cc1NC(=O)C=CCCl [Example 347, N-{4-[(3-Bromophenyl)amino]-3-cyano-7-methoxy-6-quinolinyl} -4-chloro-2-butenamide]
IC50 [1, 6]: 0.04 µg/mL (≈ 0.0848 µM)
IC50 [2, 7]: 0.2 µg/mL (≈ 0.424 µM)
IC50 [3, 8]: 0.2 µg/mL (≈ 0.424 µM)
IC50 [4, 9]: 40 nM

C=CC(=O)Nc1ccc2ncc(C#N)c(Nc3ccc(Br)c(Br)c3)c2c1 [Example 380, N-[3-Cyano-4-(3,4-dibromophenylamino)quinolin-6-yl]acrylamide]
IC50 [4, 9]: 7 nM
IC50 [5]: > 100000 nM

C=C(C)C(=O)Nc1ccc2ncc(C#N)c(Nc3cccc(Br)c3)c2c1 [Example 383, N-[4-(3-Bromophenylamino)-3-cyanoquinolin-6-yl]-2-methylacrylamide]
IC50 [4, 9]: 7 nM
IC50 [5]: > 100000 nM

CN(C)c1ccc2ncc(C#N)c(Nc3cccc(Br)c3)c2c1 [Example 395, 4-(3-Bromophenylamino)-6-dimethylaminoquinoline-3-carbonitrile Hydrochloride]
IC50 [4, 9]: 500 nM
IC50 [5]: 15000 nM
